From PMC9154192 (PLoS Biology, 2022)
Like-named read-outs stand apart in the source and are kept apart here.

Type: in vivo, SD rats
Procedure: A subchronic toxicity study was performed for PP2S. Female and male rats were divided into a control group (0 mg/kg/day, n = 15), a low-dose group (167 mg/kg/day, n = 10), a medium-dose group (500 mg/kg/day, n = 10), and a high-dose group (1,500 mg/kg/day, n = 15), respectively. Thus, there were a total of 8 groups. The drug was administered by oral gavage at 10 mL/kg body weight daily for 4 weeks. Five animals each in the control and high-dose groups continued their treatments for 2 more weeks. Clinical symptoms were observed, and body weight was measured during the test period for a total of 6 weeks; 0.5% methyl cellulose 1,500 cP (Sigma, USA) in water for injection (JW Pharmaceutical, Korea) was used as a vehicle. Control animals were treated with only the same volume of the vehicle.
Histopathological examination was performed while performing a 4-week repeated oral toxicity study for PP2S. Organs and tissues from all animals subjected to autopsy were removed and fixed in 10% neutral buffered formalin. Among them, testes, eyeballs and optic nerve were fixed in Davidson's fixative and then in 10% neutral buffered formalin. For organs/tissues subjected to histopathological examination, specimens were prepared according to the histopathological specimen preparation SOP. For histopathological examination, organs and tissues of all subjects in the control group and the high-dose group, and macroscopically observed subjects in the low-dose group were examined. […] In addition, all other changes observed in histopathological examination were judged to be spontaneous or accidental. Those not specifically observed for all groups by organ were marked with a 'dash' symbol. Grade 1, minimal; Grade 2, slight; Grade 3, moderate; Grade 4, severe.

[1] = female, G4 1,500 mg/kg, recovery period, n=5
[2] = male, G2 167 mg/kg, dosing period, n=10
[3] = male, G3 500 mg/kg, dosing period, n=10
[4] = male, G4 1,500 mg/kg, dosing period, n=10
[5] = male, G4 1,500 mg/kg, recovery period, n=5

CCCCOc1ccc2cc(CN3C(=O)CC[C@H]3C(=O)OC)c3cc(OC)c(OC)cc3c2c1 [PP2S, Methyl (S)-1-((3-butoxy-6,7-dimethoxyphenanthren-9-yl)methyl)-5-oxopyrrolidine-2-carboxylate]
5: Spleen: Pigmentation, Grade 1, no. of animals [1]
1: Lung including bronchi: Infiltrate, mononuclear cell, alveolar, focal, Grade 1, no. of animals [1] | Thyroid gland: Ectopic thymus, Presence, no. of animals [1] | Submandibular lymph node: Increased, plasma cell, Grade 2, no. of animals [2] | Adrenal gland: Vacuolation, cortical, diffuse, Grade 2, no. of animals [4] | Epididymis: Infiltrate, inflammatory cell, interstitum, Grade 1, no. of animals [4] | Harderian gland: Infiltrate, inflammatory cell, focal, Grade 1, no. of animals [4] | Kidney: Cast, hyaline, cortex, Grade 1, no. of animals [4] | Kidney: Infiltrate, inflammatory cell, interstitium, Grade 2, no. of animals [4] | Liver: Extramedullary hematopoiesis, Grade 1, no. of animals [4] | Pituitary gland: Cyst, pars nervosa, Presence, no. of animals [4] | Kidney: Basophilia, tubule, cortex, Grade 1, no. of animals [5] | Liver: Extramedullary hematopoiesis, Grade 1, no. of animals [5] | Prostate: Infiltrate, inflammatory cell, interstitium, Grade 1, no. of animals [5] | Thyroid gland: Ultimobranchial cyst, Presence, no. of animals [5]
3: Adrenal gland: Vacuolation, cortical, diffuse, Grade 1, no. of animals [4] | Kidney: Basophilia, tubule, cortex, Grade 1, no. of animals [4] | Adrenal gland: Vacuolation, cortical, diffuse, Grade 1, no. of animals [5] | Kidney: Cast, hyaline, cortex, Grade 1, no. of animals [5] | Liver: Infiltrate, mononuclear cell, focal, Grade 1, no. of animals [5] | Spleen: Pigmentation, Grade 1, no. of animals [5]
4: Liver: Infiltrate, mononuclear cell, focal, Grade 1, no. of animals [1] | Liver: Fatty change, sporadic/periportal, Grade 1, no. of animals [4] | Liver: Infiltrate, mononuclear cell, focal, Grade 1, no. of animals [4]
2: Liver: Fatty change, sporadic/periportal, Grade 1, no. of animals [1] | Thyroid gland: Ultimobranchial cyst, Presence, no. of animals [1] | Lung including bronchi: Infiltrate, mononuclear cell, alveolar, focal, Grade 1, no. of animals [4] | Prostate: Infiltrate, inflammatory cell, interstitium, Grade 1, no. of animals [4] | Thyroid gland: Ultimobranchial cyst, Presence, no. of animals [4] | Liver: Fatty change, sporadic/periportal, Grade 1, no. of animals [5]
0: Kidney: Mineralization, medulla, Grade 1, no. of animals [1] | Liver: Extramedullary hematopoiesis, Grade 1, no. of animals [1] | Liver: Fatty change, sporadic/periportal, Grade 2, no. of animals [1] | Liver: Infiltrate, mononuclear cell, focal, Grade 2, no. of animals [1] | Lung including bronchi: Alveolar macrophage aggregation, focal, Grade 1, no. of animals [1] | Pituitary gland: Cyst, pars nervosa, Presence, no. of animals [1] | Prostate: Infiltrate, inflammatory cell, interstitium, Grade 1, no. of animals [1] | Salivary gland (parotid): Focus, hypertrophic, basophilic, focal, Grade 1, no. of animals [1] | Submandibular lymph node: Increased, plasma cell, Grade 2, no. of animals [1] | Adrenal gland: Vacuolation, cortical, diffuse, Grade 1, no. of animals [2] | Adrenal gland: Vacuolation, cortical, diffuse, Grade 2, no. of animals [2] | Epididymis: Infiltrate, inflammatory cell, interstitum, Grade 1, no. of animals [2] | Eye: Dysplasia, retina, focal, Grade 1, no. of animals [2] | Harderian gland: Infiltrate, inflammatory cell, focal, Grade 1, no. of animals [2] | Kidney: Basophilia, tubule, cortex, Grade 1, no. of animals [2] | Kidney: Cast, hyaline, cortex, Grade 1, no. of animals [2] | Kidney: Hydronephrosis, unilateral, Grade 3, no. of animals [2] | Kidney: Infiltrate, inflammatory cell, interstitium, Grade 1, no. of animals [2] | Kidney: Infiltrate, inflammatory cell, interstitium, Grade 2, no. of animals [2] | Kidney: Mineralization, cortex, Grade 1, no. of animals [2] | Kidney: Mineralization, corticomedullary junction, Grade 1, no. of animals [2] | Kidney: Mineralization, medulla, Grade 1, no. of animals [2] | Liver: Extramedullary hematopoiesis, Grade 1, no. of animals [2] | Liver: Fatty change, sporadic/periportal, Grade 1, no. of animals [2] | Liver: Fatty change, sporadic/periportal, Grade 2, no. of animals [2] | Liver: Infiltrate, mononuclear cell, focal, Grade 1, no. of animals [2] | Liver: Infiltrate, mononuclear cell, focal, Grade 2, no. of animals [2] | Lung including bronchi: Alveolar macrophage aggregation, focal, Grade 1, no. of animals [2] | Lung including bronchi: Infiltrate, mononuclear cell, alveolar, focal, Grade 1, no. of animals [2] | Pituitary gland: Cyst, pars nervosa, Presence, no. of animals [2] | Prostate: Infiltrate, inflammatory cell, interstitium, Grade 1, no. of animals [2] | Salivary gland (parotid): Focus, hypertrophic, basophilic, focal, Grade 1, no. of animals [2] | Spleen: Pigmentation, Grade 1, no. of animals [2] | Thyroid gland: Ectopic thymus, Presence, no. of animals [2] | Thyroid gland: Ultimobranchial cyst, Presence, no. of animals [2] | Adrenal gland: Vacuolation, cortical, diffuse, Grade 1, no. of animals [3] | Adrenal gland: Vacuolation, cortical, diffuse, Grade 2, no. of animals [3] | Epididymis: Infiltrate, inflammatory cell, interstitum, Grade 1, no. of animals [3] | Eye: Dysplasia, retina, focal, Grade 1, no. of animals [3] | Harderian gland: Infiltrate, inflammatory cell, focal, Grade 1, no. of animals [3] | Kidney: Basophilia, tubule, cortex, Grade 1, no. of animals [3] | Kidney: Cast, hyaline, cortex, Grade 1, no. of animals [3] | Kidney: Hydronephrosis, unilateral, Grade 3, no. of animals [3] | Kidney: Infiltrate, inflammatory cell, interstitium, Grade 1, no. of animals [3] | Kidney: Infiltrate, inflammatory cell, interstitium, Grade 2, no. of animals [3] | Kidney: Mineralization, cortex, Grade 1, no. of animals [3] | Kidney: Mineralization, corticomedullary junction, Grade 1, no. of animals [3] | Kidney: Mineralization, medulla, Grade 1, no. of animals [3] | Liver: Extramedullary hematopoiesis, Grade 1, no. of animals [3] | Liver: Fatty change, sporadic/periportal, Grade 1, no. of animals [3] | Liver: Fatty change, sporadic/periportal, Grade 2, no. of animals [3] | Liver: Infiltrate, mononuclear cell, focal, Grade 1, no. of animals [3] | Liver: Infiltrate, mononuclear cell, focal, Grade 2, no. of animals [3] | Lung including bronchi: Alveolar macrophage aggregation, focal, Grade 1, no. of animals [3] | Lung including bronchi: Infiltrate, mononuclear cell, alveolar, focal, Grade 1, no. of animals [3] | Pituitary gland: Cyst, pars nervosa, Presence, no. of animals [3] | Prostate: Infiltrate, inflammatory cell, interstitium, Grade 1, no. of animals [3] | Salivary gland (parotid): Focus, hypertrophic, basophilic, focal, Grade 1, no. of animals [3] | Spleen: Pigmentation, Grade 1, no. of animals [3] | Submandibular lymph node: Increased, plasma cell, Grade 2, no. of animals [3] | Thyroid gland: Ectopic thymus, Presence, no. of animals [3] | Thyroid gland: Ultimobranchial cyst, Presence, no. of animals [3] | Eye: Dysplasia, retina, focal, Grade 1, no. of animals [4] | Kidney: Hydronephrosis, unilateral, Grade 3, no. of animals [4] | Kidney: Mineralization, cortex, Grade 1, no. of animals [4] | Kidney: Mineralization, corticomedullary junction, Grade 1, no. of animals [4] | Kidney: Mineralization, medulla, Grade 1, no. of animals [4] | Liver: Fatty change, sporadic/periportal, Grade 2, no. of animals [4] | Liver: Infiltrate, mononuclear cell, focal, Grade 2, no. of animals [4] | Lung including bronchi: Alveolar macrophage aggregation, focal, Grade 1, no. of animals [4] | Salivary gland (parotid): Focus, hypertrophic, basophilic, focal, Grade 1, no. of animals [4] | Spleen: Pigmentation, Grade 1, no. of animals [4] | Submandibular lymph node: Increased, plasma cell, Grade 2, no. of animals [4] | Thyroid gland: Ectopic thymus, Presence, no. of animals [4] | Adrenal gland: Vacuolation, cortical, diffuse, Grade 2, no. of animals [5] | Epididymis: Infiltrate, inflammatory cell, interstitum, Grade 1, no. of animals [5] | Eye: Dysplasia, retina, focal, Grade 1, no. of animals [5] | Harderian gland: Infiltrate, inflammatory cell, focal, Grade 1, no. of animals [5] | Kidney: Hydronephrosis, unilateral, Grade 3, no. of animals [5] | Kidney: Infiltrate, inflammatory cell, interstitium, Grade 1, no. of animals [5] | Kidney: Infiltrate, inflammatory cell, interstitium, Grade 2, no. of animals [5] | Kidney: Mineralization, cortex, Grade 1, no. of animals [5] | Kidney: Mineralization, corticomedullary junction, Grade 1, no. of animals [5] | Kidney: Mineralization, medulla, Grade 1, no. of animals [5] | Liver: Fatty change, sporadic/periportal, Grade 2, no. of animals [5] | Liver: Infiltrate, mononuclear cell, focal, Grade 2, no. of animals [5] | Lung including bronchi: Alveolar macrophage aggregation, focal, Grade 1, no. of animals [5] | Lung including bronchi: Infiltrate, mononuclear cell, alveolar, focal, Grade 1, no. of animals [5] | Pituitary gland: Cyst, pars nervosa, Presence, no. of animals [5] | Salivary gland (parotid): Focus, hypertrophic, basophilic, focal, Grade 1, no. of animals [5] | Submandibular lymph node: Increased, plasma cell, Grade 2, no. of animals [5] | Thyroid gland: Ectopic thymus, Presence, no. of animals [5]
7: Kidney: Infiltrate, inflammatory cell, interstitium, Grade 1, no. of animals [4]
